The target of one assay is T1, human recombinant HDAC1 (Homo sapiens, UniProt Q13547).
T1 construct: purchased Enzo Life Science, Inc. BML-SE456
The assay can be described thus: HDAC1 enzyme activity inhibition (HDAC Fluorimetric Drug Discovery Kit). The assay is classed as biochemical. The following applies: read-out: HDAC1. In short, it runs like this: (§1)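 Enzyme at 0.3 µg per well was reacted with 10 μM fluorogenic substrate in presence of 5-fold diluted compound, 30° C for 60 min.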

Another assay concerns the target T2, human recombinant HDAC6 (Homo sapiens, UniProt Q9UBN7).
T2 construct: purchased Calbiochem Inc. 382180
T2 sequence (Q9UBN7 1-1215): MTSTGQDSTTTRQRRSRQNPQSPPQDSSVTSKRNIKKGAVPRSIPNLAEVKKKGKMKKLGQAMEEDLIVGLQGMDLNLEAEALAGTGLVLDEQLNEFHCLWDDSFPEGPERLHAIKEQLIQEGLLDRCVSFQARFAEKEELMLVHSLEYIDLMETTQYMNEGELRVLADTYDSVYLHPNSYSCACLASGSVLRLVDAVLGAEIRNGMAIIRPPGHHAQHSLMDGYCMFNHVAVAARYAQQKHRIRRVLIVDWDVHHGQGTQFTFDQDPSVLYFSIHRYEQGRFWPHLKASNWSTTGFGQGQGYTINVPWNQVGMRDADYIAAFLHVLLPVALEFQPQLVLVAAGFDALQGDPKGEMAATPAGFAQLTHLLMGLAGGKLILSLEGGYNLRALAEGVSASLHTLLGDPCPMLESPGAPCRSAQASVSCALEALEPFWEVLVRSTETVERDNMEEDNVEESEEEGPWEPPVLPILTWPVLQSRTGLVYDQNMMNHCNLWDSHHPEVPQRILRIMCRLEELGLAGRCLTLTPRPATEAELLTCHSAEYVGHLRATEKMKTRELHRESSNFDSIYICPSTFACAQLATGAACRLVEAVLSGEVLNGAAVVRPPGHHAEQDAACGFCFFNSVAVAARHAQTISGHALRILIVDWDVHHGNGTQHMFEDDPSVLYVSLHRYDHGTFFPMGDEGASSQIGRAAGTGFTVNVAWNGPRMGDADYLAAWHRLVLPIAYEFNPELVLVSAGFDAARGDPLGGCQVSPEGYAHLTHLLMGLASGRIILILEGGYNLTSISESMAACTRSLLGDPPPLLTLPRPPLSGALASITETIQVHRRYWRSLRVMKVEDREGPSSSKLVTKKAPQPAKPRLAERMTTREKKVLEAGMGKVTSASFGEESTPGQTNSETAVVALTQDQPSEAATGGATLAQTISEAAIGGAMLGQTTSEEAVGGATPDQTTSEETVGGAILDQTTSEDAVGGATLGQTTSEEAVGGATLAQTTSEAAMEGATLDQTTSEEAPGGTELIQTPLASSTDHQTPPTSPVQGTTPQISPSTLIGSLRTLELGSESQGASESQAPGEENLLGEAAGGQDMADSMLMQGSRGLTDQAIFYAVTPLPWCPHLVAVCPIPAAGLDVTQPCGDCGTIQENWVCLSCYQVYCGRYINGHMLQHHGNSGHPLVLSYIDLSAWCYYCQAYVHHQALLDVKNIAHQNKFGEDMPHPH
The assay can be described thus: HDAC6 enzyme activity inhibition (HDAC Fluorimetric Drug Discovery Kit). It counts as biochemical. In outline: as §1

Where [1] appears, read: human recombinant HDAC1, IC50 calculated with GraphPad Prism.
Setting [2] is: human recombinant HDAC6, IC50 calculated with GraphPad Prism.
Setting [3] is: human recombinant HDAC1, Fluor de Lys substrate, 30° C. 60 minutes.
Where [4] appears, read: human recombinant HDAC6, same protocol as HDAC1.

Read-outs that look alike come from different tables or passages of the source. Some results are limits rather than exact numbers.

T1 sequence (Q13547 whole entry): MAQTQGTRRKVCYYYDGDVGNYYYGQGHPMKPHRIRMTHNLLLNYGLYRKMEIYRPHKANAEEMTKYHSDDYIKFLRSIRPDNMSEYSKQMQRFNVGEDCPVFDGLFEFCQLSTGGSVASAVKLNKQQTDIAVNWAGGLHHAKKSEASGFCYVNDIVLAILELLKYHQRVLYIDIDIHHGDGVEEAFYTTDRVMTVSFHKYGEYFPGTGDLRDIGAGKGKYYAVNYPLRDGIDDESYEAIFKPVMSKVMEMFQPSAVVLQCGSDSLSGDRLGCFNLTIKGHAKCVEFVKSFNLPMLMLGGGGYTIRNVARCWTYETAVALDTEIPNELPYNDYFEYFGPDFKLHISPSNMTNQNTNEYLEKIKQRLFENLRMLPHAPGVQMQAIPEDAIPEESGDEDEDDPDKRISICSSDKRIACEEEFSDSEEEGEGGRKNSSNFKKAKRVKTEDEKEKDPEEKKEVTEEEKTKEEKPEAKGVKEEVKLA

Consider `Fc1cc(-c2nnc(C(F)F)o2)ccc1Cn1cc(-c2cccc(CN3CC(F)(F)C3)c2)nn1` [Compound 4418, 2-(4-((4-(3-((3,3-difluoroazetidin-1-yl)methyl)phenyl)-1H-1,2,3-triazol-1-yl)methyl)-3-fluorophenyl)-5-(difluoromethyl)-1,3,4-oxadiazole], for which the IC50 is over 50000 nM at human recombinant HDAC1 (setting [1]) and 59.7 nM at human recombinant HDAC6 (setting [2]). Besides, the “HDAC6 selectivity (fold)” value at human recombinant HDAC6 (HDAC1 IC50 / HDAC6 IC50) came to 837 fold.

For `CN1CCN(Cc2ccc(-c3cn(Cc4ccc(-c5nnc(C(F)F)o5)cc4)nn3)cc2)CC1` [Compound 4552, 2-(difluoromethyl)-5-(4-((4-(4-((4-methylpiperazin-1-yl)methyl)phenyl)-1H-1,2,3-triazol-1-yl)methyl)phenyl)-1,3,4-oxadiazole], the IC50 on human recombinant HDAC1 (setting [3]) is over 50000 nM; on human recombinant HDAC6 (setting [4]) it was 42.2 nM. Also, the “HDAC6 selectivity (fold)” value at human recombinant HDAC6 (HDAC6 over HDAC1) is 1184 fold.

Take `FC(F)c1nnc(-c2ccc(Cn3cc(-c4cccc(C5CN(C6CCC6)C5)c4)nn3)cc2)o1` [Compound 4510, 2-(4-((4-(3-(1-cyclobutylazetidin-3-yl)phenyl)-1H-1,2,3-triazol-1-yl)methyl)phenyl)-5-(difluoromethyl)-1,3,4-oxadiazole]: the values for the IC50 at human recombinant HDAC1 (setting [3]) and on human recombinant HDAC6 (setting [4]) were over 50000 nM and 23 nM, respectively. The “HDAC6 selectivity (fold)” value on human recombinant HDAC6 (HDAC6 over HDAC1) is given as 2173 fold.

Turning to `Fc1cc(-c2nnc(C(F)F)o2)ccc1Cn1cc(-c2cccc(N3CCN(CC4(F)CC4)CC3)c2F)nn1` [Compound 4602, 2-(difluoromethyl)-5-(3-fluoro-4-((4-(2-fluoro-3-(4-((1-fluorocyclopropyl)methyl)piperazin-1-yl)phenyl)-1H-1,2,3-triazol-1-yl)methyl)phenyl)-1,3,4-oxadiazole], the IC50 was over 50000 nM on human recombinant HDAC1 (setting [3]) and 160 nM on human recombinant HDAC6 (setting [4]). For the same compound, the “HDAC6 selectivity (fold)” value on human recombinant HDAC6 (HDAC6 over HDAC1) stood at 313 fold.

Regarding `Fc1cc(-c2nnc(C(F)F)o2)ccc1Cn1cc(-c2ccc(CN3CC[C@H](F)C3)cc2)nn1` [Compound 4606, (S)-2-(difluoromethyl)-5-(3-fluoro-4-((4-(4-((3-fluoropyrrolidin-1-yl)methyl)phenyl)-1H-1,2,3-triazol-1-yl)methyl)phenyl)-1,3,4-oxadiazole], the IC50 was over 50000 nM on human recombinant HDAC1 (setting [3]) and 20.7 nM on human recombinant HDAC6 (setting [4]). The “HDAC6 selectivity (fold)” value on human recombinant HDAC6 (HDAC6 over HDAC1) was 2415 fold.

For `FC(F)c1nnc(-c2ccc(Cn3cc(C4(F)COC4)nn3)nc2)o1` [Compound 4280, 2-(difluoromethyl)-5-(6-((4-(3-fluorooxetan-3-yl)-1H-1,2,3-triazol-1-yl)methyl)pyridin-3-yl)-1,3,4-oxadiazole], the IC50 at human recombinant HDAC1 (setting [1]) was over 50000 nM; on human recombinant HDAC6 (setting [2]), 171 nM. Besides, the “HDAC6 selectivity (fold)” value on human recombinant HDAC6 (HDAC1 IC50 / HDAC6 IC50) is recorded as 292 fold.

As to `Fc1cc(-c2nnc(C(F)F)o2)cnc1Cn1cc(-c2cc(Cl)cc(CN3CCC3)c2)nn1` [Compound 19091, 2-(6-((4-(3(-azetidin-1-ylmethyl)-5-chlorophenyl)-1H-1,2,3-triazol-1-yl)methyl)-5-fluoropyridin-3-yl)-5-(difluoromethyl)-1,3,4-oxadiazole], the figures for the IC50 on human recombinant HDAC1 (setting [3]) and at human recombinant HDAC6 (setting [4]) were over 50000 nM and 115 nM, respectively. The “HDAC6 selectivity (fold)” value at human recombinant HDAC6 (HDAC6 over HDAC1) turned out to be 435 fold.

In the case of `CCCCc1cn(Cc2ccc(-c3nnc(C(F)F)o3)cn2)nn1` [Compound 3832, 2-(6-((4-butyl-1H-1,2,3-triazol-1-yl)methyl)pyridin-3-yl)-5-(difluoromethyl)-1,3,4-oxadiazole], the results for the IC50 at human recombinant HDAC1 (setting [1]) and on human recombinant HDAC6 (setting [2]) were over 50000 nM and 190 nM, respectively. Further, the “HDAC6 selectivity (fold)” value at human recombinant HDAC6 (HDAC1 IC50 / HDAC6 IC50) was determined as 263 fold.

Turning to `FC(F)c1nnc(-c2ccc(Cn3cc(-c4ccc5c(c4)CN(C4COC4)CC5)nn3)nc2)o1` [Compound 4213, 2-(difluoromethyl)-5-(6-((4-(2-(oxetan-3-yl)-1,2,3,4-tetrahydroisoquinolin-7-yl)-1H-1,2,3-triazol-1-yl)methyl)pyridin-3-yl)-1,3,4-oxadiazole], the IC50 is over 50000 nM on human recombinant HDAC1 (setting [1]) and 28.9 nM at human recombinant HDAC6 (setting [2]). Further, the “HDAC6 selectivity (fold)” value on human recombinant HDAC6 (HDAC1 IC50 / HDAC6 IC50) was determined as 1730 fold.

With `OCc1ccc(-c2cn(Cc3ccc(-c4nnc(C(F)F)o4)cc3F)nn2)s1` [Compound 17922], the IC50 on human recombinant HDAC1 (setting [3]) was over 50000 nM; at human recombinant HDAC6 (setting [4]), 97.6 nM. Further, at human recombinant HDAC6 (HDAC6 over HDAC1), the “HDAC6 selectivity (fold)” value is reported as 512 fold.
